Source: article PMC11786100, “Chronic GIPR agonism results in pancreatic islet GIPR functional desensitisation” (Molecular Metabolism, 2025)
pEC50: −log10 of the molar value. Read-outs that look alike come from different tables or passages of the source.

Key:
[1] = Peptide stability in complete medium with dispersed islet cells (cAMP bioactivity assay); format: in vitro ADME, mouse
Protocol: AD-293 cells were added to a 12-well plate and maintained in 2 ml complete DMEM. 1 μg of specified plasmid DNA was added to each well alongside Lipofectamine 2000 (Thermo Fisher, UK). cAMP production was quantified 24 hours following transfection using homogenous time resolved fluorescence (HTRF), specifically the cAMP-Gs Dynamic 2 kit (Cisbio, France). Peptides and cells were diluted in DMEM + 1% P/S + 0.1% BSA. For peptide stability testing, cells, fresh peptide and peptide incubated with dispersed islet cells were diluted in RPMI-1640 (Thermo Fisher, UK) + 10% FBS + 1% P/S. 10 μl of peptide and 10 μl of cell suspension were added in duplicate to an opaque 96-well plate (Grenier Bio-One, Austria) and incubated at 37°C for 30 minutes. 10 μl of cAMP-d2 and anti-cAMP cryptate, both diluted in lysis buffer, were added in quick succession as per the manufacturer’s protocol. The plates were then incubated at room temperature for 45 minutes and read using the SpectraMax i3x (Molecular Devices, US).
Three-parameter curve fitting was applied.

dispersed islet cells = assay: cADDis cAMP concentration-response in dispersed islets; format: cell-based, mouse; settings: three-parameter fit, n=5, read-out: calculated EC50, cAMP in dispersed islets
Protocol: (§1) Primary cultures of mouse hypothalamic neurons and dispersed pancreatic islets were transduced with the Green Up cADDis biosensor (Montana Molecular, US). Pancreatic islets from CAMPER^Pdx−1-CreERT2 and CAMPER^Som-Cre mice were not transduced. Cells were pre-treated with peptides as specified, dissolved in culture media. Following 4 h or overnight incubation and a 1-hour washout period, cells were imaged using an epifluorescence microscope at baseline (t = 3 min), following peptide addition (t = 10 min, unless specified otherwise), and following 3-isobutyl-1-methylxanthine (IBMX) (500 μM) and forskolin (FSK) (50 μM) addition (t = 3 min) to maximally stimulate the sensor. In pre-treatment experiments, islet cell fluorescence was normalised to the IBMX/FSK response which was set as 100%. In non-pre-treatment experiments, islet and neuronal cell fluorescence was normalised to both the baseline and IBMX/FSK response. The area-under-the-curve (AUC) for each cell was quantified. Full details of isolation, transduction, plating, imaging and image analysis is provided in the supplementary methods.
Dispersed islets: A cell suspension of dispersed islets in RPMI-1640 + 10% FBS + 1% P/S (islet complete media) was seeded onto square 96 well µ-plates (Ibidi, UK), coated with 0.01% poly-D-lysine hydrobromide (Sigma-Aldrich, UK) and 25 µg/ml mouse laminin (Thermo Fisher, UK). For cADDis experiments, cells were transduced with the Green Up cADDis biosensor (15 μL of cADDis, 1.5 μL of sodium butyrate per well: Montana Molecular, US). Cells were incubated overnight (37°C, 95%:5% O2:CO2 ratio).
Cells were imaged in Krebs buffer with 6 mM glucose and 0.1% BSA (unless 10% FBS was specified) at 37°C using an automated epifluorescence microscope (modified Nikon Ti-2E with LED illumination). Multiple fields of view (FOV) were imaged in parallel (for islets, multiple wells of a 96 well plate were imaged in parallel), allowing hundreds to thousands of cells to be imaged every minute throughout the time course. For all acquisitions, the first three minutes were baseline recording pre-peptide addition and the last three minutes were a positive control following IBMX (500 μM) and forskolin (50 μM) addition to maximally stimulate the sensor.
cAMP quantification from the raw islet/neuronal images was performed using Fiji v1.54f (NIH). For each acquisition, a flat-field (BaSiC [3*]) correction was applied, and intensity thresholding enabled cell-containing regions to be identified as regions-of-interest (ROIs). The fluorescence intensity of each ROI was measured at each time point. In pre-treatment experiments, islet cell fluorescence was normalised to the maximal IBMX/FSK response which was set as 100%. For non-pre-treatment experiments, neuronal and islet cell fluorescence were normalised to both the baseline and maximal IBMX/FSK response. The AUC during peptide stimulation for each cell was quantified. Neurons with an AUC greater than 75 (representing a response 15 % of the maximum IBMX/FSK response) were deemed responder neurons.
We aimed to determine appropriate pre-treatment doses of GIPR agonists which would produce detectable cAMP responses, indicating target engagement, and were compatible with an extended incubation in complete medium, which could influence ligand availability via binding to serum proteins. We first performed concentration-response analysis in dispersed islets transduced with cADDis in the presence of 10% FBS (Figure S2A, B, D, E).
To determine a sensible re-challenge dose of GIPR agonists, a further concentration-response analysis was conducted in cADDis-transduced dispersed islets in imaging buffer (Krebs buffer + 6 mM glucose + 0.1% BSA, i.e. without FBS) (Figure S2C, F). […] Therefore, 1 μM of GIP108 and 100 nM of GIP were chosen as peri-maximal re-stimulation doses for the remaining islet cAMP assays.
GLP-1R agonist pre-treatment dose selection was performed concurrently with GIPR agonist dose selection.

[2] = test system: murine hypothalamic neurons; assay: cADDis cAMP imaging in primary hypothalamic neurons; format: cell-based, mouse; settings: 100 nM and 1 μM, 5-minute stimulation, n=4
Protocol: as §1
Primary cultures of hypothalamic neurons were prepared from 6-week-old male and female mice as described previously [2*]. A minor difference was that the neuronal pellet was resuspended in Neurobasal-A medium containing 0.25% Glutamax, 2% B27 and 25 ng/ml NGF (all Thermo Fisher, UK) (neuronal culture media).
Hypothalamic neurons: 100 μL cell suspension of neurons in neuronal culture media was seeded on 35 mm petri dish (MatTek Corporation), pre-coated with 0.01% poly-D-lysine hydrobromide. […]
cAMP quantification from the raw islet/neuronal images was performed using Fiji v1.54f (NIH). […] The fluorescence intensity of each ROI was measured at each time point. In pre-treatment experiments, islet cell fluorescence was normalised to the maximal IBMX/FSK response which was set as 100%. For non-pre-treatment experiments, neuronal and islet cell fluorescence were normalised to both the baseline and maximal IBMX/FSK response. The AUC during peptide stimulation for each cell was quantified. […]

[3] = test system: lean and HFD-induced obese mice; assay: In vivo GIPR desensitisation: IPGTT and insulin bleeds; set-up: species or system mouse
Protocol: (§2) In all in vivo studies, mice were randomised by body weight into groups. Mice received a 50 μL subcutaneous injection of saline (0.9% sodium chloride) or peptide at a specified dose, diluted in saline. Peptide dosing was in nmol per kg of total body weight. For the assessment of the chronic effects of GIP108, mice were injected daily for 15 days. Body composition was measured by EchoMRI on day −1 and day 15. An intraperitoneal glucose tolerance test (IPGTT) (2 g/kg) was conducted on day 14, following 6 h of fasting and 2 h after peptide injection. Non-fasting plasma leptin (ab199082, Abcam, UK), adiponectin (ab226900, Abcam, UK) and amino acids (ab65347, Abcam, UK) were measured on day 16. For the assessments of in vivo GIPR desensitisation, mice were injected at 17:00 with vehicle or GIP108 (30 nmol/kg) prior to an acute food intake study/IPGTT/insulin bleeds conducted the following day. Full details of the in vivo studies are provided in the supplementary methods.
Mice were fasted at 08:00. For all studies, 20% glucose was administered at 14:00, with the injection volume adjusted to the body weight of the mouse such that each mouse received glucose at 2 g/kg. To assess effects of GIP108 on day 14 of the chronic study, mice were dosed with saline or GIP108 at a specified dose at 12:00. […] Blood glucose measurements were taken via tail vein venesection at baseline, t=15, t=30, t=60, t=90 and t=120 mins. Glucose AUC is calculated using y=0. Glucose readings were measured in mmol/L using the same GlucoRx glucometer.
Mice were fasted at 08:00. At 14:00, mice received an intraperitoneal injection with 20% glucose, with the injection volume adjusted to the body weight of the mouse such that each mouse received glucose at 2 g/kg. […] Blood samples were taken via tail vein venesection at baseline and t=15 minutes following injection.
Leptin, adiponectin and amino acids were quantified following chronic GIP108 administration. Plasma amino acids were measured using the Abcam L-amino acid assay kit (ab65347, Abcam, UK). Plasma adiponectin was measured using the Abcam mouse adiponectin ELISA kit (ab226900, Abcam, UK). Plasma leptin was measured using the Abcam mouse leptin ELISA kit (ab199082, Abcam, UK). All assays were performed according to the manufacturer’s protocol and were read using the SpectraMax i3x Microplate Reader (Molecular Devices, US).

HFD-induced obese mice = assay: Acute fast-refeed food intake study; format: in vivo, mouse; settings: 200 nmol/kg; vehicle and GIP108 (30 nmol/kg) pre-treated HFD-induced obese mice; n = 37–40
Protocol: as §2
Food intake was measured at t=30, t=60, t=120 and t=240 mins.

[4] = 1 μM in complete medium with dispersed islet cells, cAMP bioactivity in mouse GIPR AD-293 cells

| Molecule | concentration remaining from 0.5 nM after 24 hours [1] [nM] | concentration remaining from 5 nM after 24 hours [1] [nM] | pEC50 (dispersed islet cells; imaging buffer (Krebs buffer + 6 mM glucose + 0.1% BSA, without FBS)) | pEC50 (dispersed islet cells; in the presence of 10% FBS, stepwise addition) | stability at 4 hours [1, 4] | stability at 24 hours [1, 4] | cAMP response of hypothalamic neurons [2] | glucose tolerance during IPGTT ([3]; hGIP 50 nmol/kg with i.p. glucose, lean and HFD-induced obese mice given s.c. vehicle 21 h prior, n = 14–16) | glucose tolerance during IPGTT ([3]; hGIP 500 nmol/kg, lean and obese mice pre-treated with GIP108 (30 nmol/kg), n=6-8) | food intake, acute fast-refeed study (HFD-induced obese mice) |
| --- | --- | --- | --- | --- | --- | --- | --- | --- | --- | --- |
| CCCCCCCCCCCCCCCC(=O)N[C@@H](CCC(=O)NCCCC[C@H](NC(=O)[C@H](C)NC(=O)[C@H](C)NC(=O)[C@H](CCC(N)=O)NC(=O)CNC(=O)[C@H](CCC(=O)O)NC(=O)[C@H](CC(C)C)NC(=O)[C@H](Cc1ccc(O)cc1)NC(=O)[C@H](CO)NC(=O)[C@H](CO)NC(=O)[C@@H](NC(=O)[C@H](CC(=O)O)NC(=O)[C@H](CO)NC(=O)[C@@H](NC(=O)[C@H](Cc1ccccc1)NC(=O)[C@@H](NC(=O)CNC(=O)[C@H](CCC(=O)O)NC(=O)[C@H](C)NC(=O)[C@@H](N)Cc1cnc[nH]1)[C@@H](C)O)[C@@H](C)O)C(C)C)C(=O)N[C@@H](CCC(=O)O)C(=O)N[C@@H](Cc1ccccc1)C(=O)N[C@H](C(=O)N[C@@H](C)C(=O)N[C@@H](Cc1c[nH]c2ccccc12)C(=O)N[C@@H](CC(C)C)C(=O)N[C@H](C(=O)N[C@@H](CCCNC(=N)N)C(=O)NCC(=O)N[C@@H](CCCNC(=N)N)C(=O)NCC(=O)O)C(C)C)[C@@H](C)CC)C(=O)O [liraglutide] | 0.12 | 0.97 | – | – | – | – | – | – | – | – |
| human GIP(1–42) [hGIP] | – | – | 8.20 | 7.16 | remained stable at 4 hours | not 24 hours | failed to show detectable responses | significantly improved glucose tolerance | still able to improve glucose tolerance | modest reductions in food intake |
